Experimental data: patent US7951956B2, “Benzoimidazole compound capable of inhibiting prostaglandin D synthetase” (Taiho Pharmaceuticals Co., Ltd., priority 2005, dated 2011)

Legend:
[1] = biological target: human hematopoietic synthase (Homo sapiens, UniProt O60760); experiment: Hematopoietic synthase inhibitory activity (Experiment 1); assay type: biochemical; conditions: [14C] prostaglandin H2 10 μM, preincubated at 25° C. for 5 minutes, 1 minute reaction; read-out: Concentration of Pharmaceutical Compound Required to Inhibit 50% of Hematopoietic Synthase
Sequence of human hematopoietic synthase (O60760 whole entry): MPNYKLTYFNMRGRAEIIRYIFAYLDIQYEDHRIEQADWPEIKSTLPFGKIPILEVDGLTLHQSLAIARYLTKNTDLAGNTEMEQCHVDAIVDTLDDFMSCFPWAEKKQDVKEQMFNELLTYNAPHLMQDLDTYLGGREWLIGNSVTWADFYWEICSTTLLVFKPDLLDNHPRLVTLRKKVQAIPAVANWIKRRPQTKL
Procedure: Experiment 1 was carried out according to the method of Urade, Y. et al. (J. Biol. Chem. 262, 3820-3825, (1987)). More specifically, the reaction mixture (49 μL); 100 mM Tris-HCl (pH 8.0), 1 mM reduced glutathione, 0.1 mg/mL γ-globulin, and human hematopoietic synthase (quantum sufficient), and a test compound (final concentration: 0.01-100 μM) were preincubated at 25° C. for 5 minutes. In place of the test compound, a DMSO solution (final concentration: 1%) was used in the solvent control group (Control Group). Subsequently, 1 μL of [^14C] prostaglandin H2 (final concentration: 10 μM) was added to start the reaction. One minute after the start of the reaction, 250 μL of a reaction stopper solution (diethylether/methanol/1M citric acid (30/4/1) cooled to −20° C. was added to stop the reaction.
Thereafter, 50 μL of the upper layer portion (organic solvent phase) was applied to a TLC plate and developed at −20° C. for 45 minutes (developer: diethylether/methanol/acetic acid (capacity ratio=90/2/1)). After drying the plate, the plate was exposed to an imaging plate for 1 to 24 hours, and the radioactivity corresponding to prostaglandin D2 was analyzed using an image analyzer (product of FUJIFILM Corporation). The area (%) occupied by the prostaglandin D2 band per lane was calculated, and the concentration of the test compound required to inhibit 50% of the hematopoietic synthase (IC50 value) was calculated by comparison with the Control group in each experiment.

Structure (SMILES)	IC50 [1]	melting point
Cc1[nH]c(C(=O)NCO)c(C)c1-c1nc2cc(C(=O)c3ccccc3)ccc2[nH]1 [Compound 67, (N-Hydroxymethyl)-4-(5-benzoylbenzimidazol-2-yl)-3,5-dimethylpyrrole-2-carboxamide]	109 nM	196 to 210 °C
CCOC(=O)c1[nH]c(C)c(-c2nc3cc(Oc4ccccc4)ccc3[nH]2)c1C [Compound 68, 4-(5-Phenoxybenzimidazole-2-yl)-3,5-dimethylpyrrole-2-carboxylic acid ethyl ester]	210 nM	239 to 242 °C
O=C(c1ccccc1)c1ccc2nc(-c3ccc[nH]3)[nH]c2c1 [Compound 51, 5-Benzoyl-2-(pyrrol-2-yl)-benzimidazole]		128 to 133 °C
Cc1[nH]c(C(=O)NCCC(=O)O)c(C)c1-c1nc2cc(C(=O)c3ccccc3)ccc2[nH]1 [Compound 21, N-(2-Carboxyethyl)-4-(5-benzoylbenzimidazol-2-yl)-3,5-dimethylpyrrole-2-carboxamide]	304 nM	256 to 258 °C
Cc1oc(C(N)=O)c(C)c1-c1nc2cc(C(=O)c3ccccc3)ccc2[nH]1 [Compound 2, 4-(5-Benzoylbenzimidazol-2-yl)-3,5-dimethylfuran-2-carboxamide]	274 nM	143 to 146 °C
Cc1[nH]c(C(=O)N2CCC(C(=O)NCCN(C)C)CC2)c(C)c1-c1nc2cc(C(=O)c3ccccc3)ccc2[nH]1 [Compound 46, N-Dimethylaminoethyl-1-((4-(5-benzoylbenzimidazol-2-yl)-3,5-dimethylpyrrol-2-yl)-carbonyl)piperidine-4-carboxamide]	758 nM	258 to 260 °C
Cc1coc(C)c1-c1nc2cc(C(=O)c3ccccc3)ccc2[nH]1 [Compound 1, 5-Benzoyl-2-(2,4-dimethylfuran-3-yl)-benzimidazole]	796 nM	203 to 208 °C
O=C(c1ccccc1)c1ccc2[nH]c(-c3ccc(C(=O)O)o3)nc2c1 [Compound 57, 5-(5-Benzoylbenzimidazol-2-yl)-furan-2-carboxylic acid]	4130 nM	170 °C
Cc1[nH]c(C(=O)N2CCCC2)c(C)c1-c1nc2cc(Oc3ccccc3)ccc2[nH]1 [Compound 70, ((4-(5-Phenoxybenzimidazole-2-yl)-3,5-dimethylpyrrol-2-yl)-2-carbonyl)pyrrolidine]	614 nM	251 to 254 °C
Cc1[nH]c(C(=O)O)c(C)c1-c1nc2cc(Oc3ccccc3)ccc2[nH]1 [Compound 69, 4-(5-Phenoxybenzimidazole-2-yl)-3,5-dimethylpyrrole-2-carboxylic acid]	491 nM	167 to 172 °C (dec.)
O=C(c1ccccc1)c1ccc2[nH]c(-c3c[nH]c(C(=O)N4CCCC4)c3)nc2c1 [Compound 6, ((4-(5-Benzoylbenzimidazol-2-yl)-pyrrol-2-yl)-carbonyl)pyrrolidine]	1740 nM	160 to 162 °C
Cc1[nH]c(C=O)c(C)c1-c1nc2cc(C(=O)c3ccccc3)ccc2[nH]1 [Compound 8, 2-(2-Formyl-3,5-dimethyl-pyrrol-4-yl)-5-benzoylbenzimidazole]		253 to 255 °C
Cc1[nH]c(/C=C/C#N)c(C)c1-c1nc2cc(C(=O)c3ccccc3)ccc2[nH]1 [Compound 9, 2-(2-Acrylonitrile-3,5-dimethyl-pyrrol-4-yl)-5-benzoylbenzimidazole]	110 nM	201 to 203 °C
CN(C)Cc1ccc(-c2nc3cc(C(=O)c4ccccc4)ccc3[nH]2)o1 [Compound 56, 2-(5-Dimethylaminomethyl-furan-2-yl)-5-benzoylbenzimidazole]	4780 nM	
O=C(c1ccccc1)c1ccc2[nH]c(-c3ccc(C(=O)N4CCSC4)o3)nc2c1 [Compound 63]	1250 nM	
Cc1[nH]c(C(=O)NCC2CCCCC2)c(C)c1-c1nc2cc(C(=O)c3ccccc3)ccc2[nH]1 [Compound 25, N-(Cyclohexylmethyl)-4-(5-benzoylbenzimidazol-2-yl)-3,5-dimethylpyrrole-2-carboxamide]	286 nM	
Cc1[nH]c(C(=O)N2CCC(C(=O)NCCCN(C)C)CC2)c(C)c1-c1nc2cc(C(=O)c3ccccc3)ccc2[nH]1 [Compound 48, N-(3-Dimethylaminopropyl)-1-((4-(5-benzoylbenzimidazol-2-yl)-3,5-dimethylpyrrol-2-yl)-carbonyl)piperidine-4-carboxamide]	124 nM	

Structure (SMILES)	IC50 [1]	melting point
COC(=O)CNC(=O)c1[nH]c(C)c(-c2nc3cc(C(=O)c4ccccc4)ccc3[nH]2)c1C [Compound 20, N-(1-Methoxycarbonylmethyl)-4-(5-benzoylbenzimidazol-2-yl)-3,5-dimethylpyrrole-2-carboxamide]	871 nM	
Cc1cc(NC(=O)c2[nH]c(C)c(-c3nc4cc(C(=O)c5ccccc5)ccc4[nH]3)c2C)no1 [Compound 26, N-(5-Methylisoxazole-3-yl)-4-(5-benzoylbenzimidazol-2-yl)-3,5-dimethylpyrrole-2-carboxamide]	149 nM	
Cc1[nH]c(C(=O)Nc2ccc3ncsc3c2)c(C)c1-c1nc2cc(C(=O)c3ccccc3)ccc2[nH]1 [Compound 31, N-(Benzothiazole-6-yl)-4-(5-benzoylbenzimidazol-2-yl)-3,5-dimethylpyrrole-2-carboxamide]	90 nM	
COCCCNC(=O)c1[nH]c(C)c(-c2nc3cc(C(=O)c4ccccc4)ccc3[nH]2)c1C [Compound 16, N-(3-Methoxypropyl)-4-(5-benzoylbenzimidazol-2-yl)-3,5-dimethylpyrrole-2-carboxamide]	2280 nM	
O=C(c1ccccc1)c1ccc2[nH]c(-c3ccc(Br)o3)nc2c1 [Compound 58, 2-(5-Bromo-furan-2-yl)-5-benzoylbenzimidazole]	2370 nM	
Cc1oc(C(=O)NCc2ccc3c(c2)OCO3)c(C)c1-c1nc2cc(C(=O)c3ccccc3)ccc2[nH]1 [Compound 4, N-(3,4-Methylenedioxyphenyl)methyl-4-(5-benzoylbenzimidazol-2-yl)-3,5-dimethylfuran-2-carboxamide]	278 nM	
O=C(c1ccccc1)c1ccc2[nH]c(-c3ccc(C(=O)NCc4ccc5c(c4)OCO5)o3)nc2c1 [Compound 62, N-(3,4-Methylenedioxyphenylmethyl)-5-(5-benzoylbenzimidazol-2-yl)-furan-2-carboxamide]	2430 nM	
Cc1[nH]c(C(=O)NCCN2CCCC2)c(C)c1-c1nc2cc(C(=O)c3ccccc3)ccc2[nH]1 [Compound 23, N-(2-Pyrrolidine-1-yl-ethyl)-4-(5-benzoylbenzimidazol-2-yl)-3,5-dimethylpyrrole-2-carboxamide]	223 nM	
CONC(=O)c1[nH]c(C)c(-c2nc3cc(C(=O)c4ccccc4)ccc3[nH]2)c1C [Compound 14, N-(Methoxy)-4-(5-benzoylbenzimidazol-2-yl)-3,5-dimethylpyrrole-2-carboxamide]	355 nM	
CONC(=O)c1[nH]c(C)c(-c2nc3cc(Oc4ccccc4)ccc3[nH]2)c1C [Compound 73, N-(Methoxy)-4-(5-phenoxybenzimidazole-2-yl)-3,5-dimethylpyrrole-2-carboxamide]	240 nM	
Cc1[nH]c(C(=O)NCCc2ccccn2)c(C)c1-c1nc2cc(Oc3ccccc3)ccc2[nH]1 [Compound 72, N-(2-(2-Pyridyl)ethyl)-4-(5-phenoxybenzimidazole-2-yl)-3,5-dimethylpyrrole-2-carboxamide]	209 nM	
O=C(c1ccccc1)c1ccc2[nH]c(-c3ccc(P(=O)(O)O)o3)nc2c1 [Comparative Example 3, 5-Benzophenone-2-(2-phosphono-5-furanyl)benzimidazole dihydrate, reference compound]	29300 nM	
Cc1[nH]c(C(=O)Nc2ccc3c(c2)CCO3)c(C)c1-c1nc2cc(C(=O)c3ccccc3)ccc2[nH]1 [Compound 30, N-(2,3-Dihydrobenzofuran-5-yl)-4-(5-benzoylbenzimidazol-2-yl)-3,5-dimethylpyrrole-2-carboxamide]	113 nM	
Cc1[nH]c(C(=O)N2CCN(c3ccccc3)CC2)c(C)c1-c1nc2cc(C(=O)c3ccccc3)ccc2[nH]1 [Compound 41, ((4-(5-Benzoylbenzimidazol-2-yl)-3,5-dimethylpyrrol-2-yl)-carbonyl)-4-phenylpiperazine]	1450 nM	
O=C(c1ccccc1)c1ccc2[nH]c(-c3ccc(P(=O)(O)O)o3)nc2c1 (hydrate or solvate) [Comparative Example 3, 5-Benzophenone-2-(2-phosphono-5-furanyl)benzimidazole dihydrate]		224 to 229 °C
Cc1[nH]c(C(=O)NCCCN(C)C)c(C)c1-c1nc2cc(C(=O)c3ccccc3)ccc2[nH]1 [Compound 17, N-(3-Dimethylaminopropyl)-4-(5-benzoylbenzimidazol-2-yl)-3,5-dimethylpyrrole-2-carboxamide]	124 nM	
Cc1[nH]c(C(=O)N(C)C)c(C)c1-c1nc2cc(C(=O)c3ccccc3)ccc2[nH]1 [Compound 64, (N,N-Dimethyl)-4-(5-benzoylbenzimidazol-2-yl)-3,5-dimethylpyrrole-2-carboxamide]	377 nM	
